Usually DC50 stands for the concentration at which degradation of the target reaches its halfway point.

17 compounds from patent publication US20260355196A1, “INHIBITORS AND DEGRADERS OF PIP4K PROTEIN” (Larkspur Biosciences, Inc., priority 2023, published 2026) can be followed below.

Some results are limits rather than exact numbers.

The first test concerns the target T1, PIP4K2C (Homo sapiens, UniProt Q8TBX8).
T1 sequence (Q8TBX8 1-421): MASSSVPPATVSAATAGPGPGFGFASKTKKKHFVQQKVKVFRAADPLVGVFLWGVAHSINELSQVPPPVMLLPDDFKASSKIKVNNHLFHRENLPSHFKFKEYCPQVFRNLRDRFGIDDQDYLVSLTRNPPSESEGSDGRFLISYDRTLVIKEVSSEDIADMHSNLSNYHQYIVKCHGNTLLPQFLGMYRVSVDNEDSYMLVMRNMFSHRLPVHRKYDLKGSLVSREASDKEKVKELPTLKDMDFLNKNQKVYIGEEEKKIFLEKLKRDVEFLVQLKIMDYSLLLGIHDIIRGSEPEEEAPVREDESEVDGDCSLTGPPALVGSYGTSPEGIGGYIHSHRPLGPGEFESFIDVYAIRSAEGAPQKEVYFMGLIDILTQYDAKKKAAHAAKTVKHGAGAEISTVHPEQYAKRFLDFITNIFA
As to the kind of experiment: HiBiT PIP4K2C degradation assay in MOLT-4 cells (endogenous PIP4K2C C-terminally tagged with HiBiT). Type of test: cell-based. Also noted: untagged in primary human PBMCs and monocyte-derived dendritic cells. The following applies: 6 hours of incubation time, rather than 24 hours; MOLT-4, top concentration 10 micromolar; read-out: HiBIT-degradation MOLT4 PIP4k2C DC50 (6 hours, marked *). The text has this:
Example B-2: HiBiT PIP4K2C degradation assay
Materials: MOLT-4, a human T lymphoblast cell line (see https://www.atcc.org/products/crl-1582, herein incorporated by reference in its entirety), was genetically engineered using CRISPR-Cas9 by Synthego Corporation (Redwood City, CA) to C-terminally tag endogenous PIP4K2C with HiBiT peptide. Following clonal selection, genotype was confirmed by Sanger sequencing. MO LT-4 were maintained using RPMI-1640 medium from Gibco (Grand Island, NY, catalog number 11875-085) supplemented with 10% fetal bovine serum (FBS) from VWR (Philadelphia, PA, catalog number 97068-085). For HiBiT assays the cells were resuspended in RPMI-1640 medium without phenol read from Gibco (Grand Island, NY, catalog number 11835-030) supplemented with 10% FBS. Nano-Glo® HiBiT Lytic Assay System was purchased from Promega (Madison, WI, Catalog number N3030). Cell culture flasks and 384-well microplates were purchased from Corning (Glendale, AZ).
To study PIP4K2C degradation, 384-well plates were plated with a 10-point dose response curve, 3-fold dilution, in duplicate with a top starting concentration of 10 micromolar. Subsequently 22,500 cells were added to each well and incubated at 37 C in 5% C02 for 24 hours or 6 hours. At the end of the incubation time, cells were treated with the Nano-Glo® HiBiT Lytic Detection System following the manufacturer's instructions. Luminescence was measured with a PHERAstar FSX plate reader (BMG Labtech, Cary, NC). The Levenberg-Marquardt algorithm was used to fit a Hill equation to dose-response data to calculate DC50 values (see Table 6).
A general note: The HiBiT peptide binds its large partner to form an active luciferase.
For `O=C1CCC(n2c(=O)oc3cc(N4CCN(CC5CCN(C(=O)[C@H]6CC[C@H](Nc7ncc(F)c(-c8cccc(-n9ccccc9=O)c8)n7)CC6)CC5)CC4)ccc32)C(=O)N1` (stereo partly drawn) [Compound 397, trans-3-(6-(4-((1-(4-((5-fluoro-4-(3-(2-oxopyridin-1(2H)-yl)phenyl)pyrimidin-2-yl)amino)cyclohexane-1-carbonyl)piperidin-4-yl)methyl)piperazin-1-yl)-2-oxobenzo[d]oxazol-3 (2H)-yl)piperidine-2,6-dione], the DC50 was under 500 nM.
Same read-out and setting: in the case of `Cn1nc(C2CCC(=O)NC2=O)c2ccc(C3CCN(CC4CCN(C(=O)[C@H]5CC[C@H](Nc6ncc(F)c(-c7cccc(-c8ccc[nH]c8=O)c7)n6)CC5)CC4)CC3)cc21` (stereo partly drawn) [Compound 391, trans-3-(6-(1-((1-(4-((5-fluoro-4-(3-(2-oxo-1,2-dihydropyridin-3-yl)phenyl)pyrimidin-2-yl)amino)cyclohexane-1-carbonyl)piperidin-4-yl)methyl)piperidin-4-yl)-1-methyl-1H-indazol-3-yl)piperidine-2,6-dione] it was under 500 nM.
The same measure, in the same setting: in the case of `O=C1CC[C@@H](Nc2ccc(C3CCN([C@H]4CC[C@H](NC(=O)[C@H]5CC[C@H](Nc6ncc(F)c(-c7cccc(N8CCCOC8=O)n7)n6)CC5)CC4)CC3)c(F)c2)C(=O)N1` [Compound 519, (trans)-N-((trans)-4-(4-(4-((2,6-dioxopiperidin-3-yl)amino)-2-fluorophenyl)piperidin-1-yl)cyclohexyl)-4-((5-fluoro-4-(6-(2-oxo-1,3-oxazinan-3-yl)pyridin-2-yl)pyrimidin-2-yl)amino)cyclohexane-1-carboxamide] it was under 500 nM.
Same read-out and setting: in the case of `O=C1CCC(Nc2ccc(C3CCN([C@H]4CC[C@H](C(=O)N[C@H]5CC[C@H](Nc6ncc(F)c(-c7ccnc(C8(O)CCC8)c7)n6)CC5)CC4)CC3)c(F)c2)C(=O)N1` (stereo partly drawn) [Compound 569, trans-(1r,4R)-4-(4-(4-((2,6-dioxopiperidin-3-yl)amino)-2-fluorophenyl)piperidin-1-yl)-N-((1r,4R)-4-((5-fluoro-4-(2-(1-hydroxycyclobutyl)pyridin-4-yl)pyrimidin-2-yl)amino)cyclohexyl)cyclohexane-1-carboxamide] it was under 500 nM; in that of `Cn1nc(C2CCC(=O)NC2=O)c2ccc(N3CCN([C@H]4CC[C@H](C(=O)N[C@H]5CC[C@H](Nc6ncc(F)c(-c7cccc(-n8ccccc8=O)c7)n6)CC5)CC4)CC3)cc21` (stereo partly drawn) [Compound 388, trans-4-(4-(3-(2,6-dioxopiperidin-3-yl)-1-methyl-1H-indazol-6-yl)piperazin-1-yl)-N-(trans-4-((5-fluoro-4-(3-(2-oxopyridin-1(2H)-yl)phenyl)pyrimidin-2-yl)amino)cyclohexyl)cyclohexane-1-carboxamide], under 500 nM.
`O=C1CCC(Nc2ccc(N3CCN(C[C@H]4CC[C@H](CNC(=O)[C@H]5CC[C@H](Nc6ncc(F)c(-c7cccc(-n8ccccc8=O)c7)n6)CC5)CC4)CC3)c(F)c2)C(=O)N1` (stereo partly drawn) [Compound 416, trans-N-((trans-4-((4-(4-((2,6-dioxopiperidin-3-yl)amino)-2-fluorophenyl)piperazin-1-yl)methyl)cyclohexyl)methyl)-4-((5-fluoro-4-(3-(2-oxopyridin-1(2H)-yl)phenyl)pyrimidin-2-yl)amino)cyclohexane-1-carboxamide]: the DC50 was under 500 nM.
Consider `O=C1CC[C@@H](Nc2ccc(N3CCN([C@H]4CC[C@H](NC(=O)[C@H]5CC[C@H](Nc6ncc(F)c(-c7cccc(-c8ccc[nH]c8=O)c7)n6)CC5)CC4)CC3)c(F)c2)C(=O)N1` (single isomer, unassigned) [Compound 432], for which the DC50 was under 500 nM.
Take `O=C1CCC(Nc2ccc(N3CCC(N4CCC(C(=O)N[C@H]5CC[C@H](Nc6ncc(F)c(-c7cccc(N8CCCCC8=O)c7)n6)CC5)CC4)C(F)C3)c(F)c2)C(=O)N1` (some centres unmarked) [Compound 524, 1′-(4-((2,6-dioxopiperidin-3-yl)amino)-2-fluorophenyl)-3′-fluoro-N-((1r,4r)-4-((5-fluoro-4-(3-(2-oxopiperidin-1-yl)phenyl)pyrimidin-2-yl)amino)cyclohexyl)-[1,4′-bipiperidine]-4-carboxamide]: the DC50 was under 500 nM.
The same measure, in the same setting: in the case of `O=C1CC[C@H](Nc2ccc(C3CCN([C@H]4CC[C@H](C(=O)N[C@H]5CC[C@H](Nc6ncc(F)c(-c7cccc(-n8ccccc8=O)c7)n6)CC5)CC4)CC3)c(F)c2)C(=O)N1` [Compound 457, (1S,4R)-4-(4-(4-(((S)-2,6-dioxopiperidin-3-yl)amino)-2-fluorophenyl)piperidin-1-yl)-N-((1r,4R)-4-((5-fluoro-4-(3-(2-oxopyridin-1(2H)-yl)phenyl)pyrimidin-2-yl)amino)cyclohexyl)cyclohexane-1-carboxamide] it was under 500 nM; in that of `Cn1nc([C@@H]2CCC(=O)NC2=O)c2ccc(C3CCN(CC4CCN(C(=O)[C@H]5CC[C@H](Nc6ncc(F)c(-c7cccc(-n8ccccc8=O)c7)n6)CC5)CC4)CC3)cc21` (single isomer, unassigned) [Compound 438], under 500 nM; in that of `O=C1CCC(Nc2ccc(N3CCN([C@H]4CC[C@H](OC(=O)N5CCC(Nc6ncc(F)c(-c7cccc(-n8ccccc8=O)c7)n6)CC5)CC4)CC3)c(F)c2)C(=O)N1` (stereo partly drawn) [Compound 699, trans-(1R,4r)-4-(4-(4-(((R)-2,6-dioxopiperidin-3-yl)amino)-2-fluorophenyl)piperazin-1-yl)cyclohexyl 4-((5-fluoro-4-(3-(2-oxopyridin-1 (2H)-yl)phenyl)pyrimidin-2-yl)amino)piperidine-1-carboxylate], under 500 nM.

Staying with this test, now noted: 24 hours incubation, MOLT-4, top concentration 10 micromolar; read-out: HiBIT-degradation MOLT4 PIP4k2C 24 hours DC50.
With `O=C1CCC(N2Cc3cc(C4CCN(CC5CCN(CC(=O)N6CCC(Nc7ncc(Cl)c(-c8cccc(-c9ccccc9)c8)n7)CC6)CC5)CC4)ccc3C2=O)C(=O)N1` (centres unmarked) [Compound 50], the DC50 was under 500 nM.
Same read-out and setting: in the case of `O=C1CCC(Nc2ccc(N3CCN(CC4CCN(C(=O)[C@H]5CC[C@H](Nc6ncc(F)c(-c7cccc(-n8ccccc8=O)c7)n6)CC5)CC4)CC3)c(F)c2)C(=O)N1` (stereo partly drawn) [Compound 374, trans-3-((3-fluoro-4-(4-((1-(4-((5-fluoro-4-(3-(2-oxopyridin-1(2H)-yl)phenyl)pyrimidin-2-yl)amino)cyclohexane-1-carbonyl)piperidin-4-yl)methyl)piperazin-1-yl)phenyl)amino)piperidine-2,6-dione] it was under 500 nM; in that of `O=C1CCC(N2Cc3cc(C4CCN(CCN5CCC(C(=O)N6CCC[C@H](Nc7ncc(Cl)c(-c8cccc(-c9ccccc9)c8)n7)C6)CC5)CC4)ccc3C2=O)C(=O)N1` (some centres unmarked) [Compound 78], under 500 nM.
`O=C1CCC(Nc2ccc(C3CCN(CCC4CCN(C(=O)[C@H]5CC[C@H](Nc6ncc(F)c(-c7cccc(-n8ccccc8=O)c7)n6)CC5)CC4)CC3)c(F)c2)C(=O)N1` (stereo partly drawn) [Compound 322, trans-3-((3-fluoro-4-(1-(2-(1-((1r,4r)-4-((5-fluoro-4-(3-(2-oxopyridin-1(2H)-yl)phenyl)pyrimidin-2-yl)amino)cyclohexane-1-carbonyl)piperidin-4-yl)ethyl)piperidin-4-yl)phenyl)amino)piperidine-2,6-dione]: the DC50 is under 500 nM.
Turning to `Cn1c(=O)n(C2CCC(=O)NC2=O)c2ccc(C3CCN(CCN4CCC(C(=O)N5CCC[C@H](Nc6ncc(Cl)c(-c7cccc(-c8ccccc8)c7)n6)C5)CC4)CC3)cc21` (stereo partly drawn) [Compound 44, 3-(5-(1-(2-(4-((S)-3-((4-([1,1′-biphenyl]-3-yl)-5-chloropyrimidin-2-yl)amino)piperidine-1-carbonyl)piperidin-1-yl)ethyl)piperidin-4-yl)-3-methyl-2-oxo-2,3-dihydro-1H-benzo[d]imidazol-1-yl)piperidine-2,6-dione], the DC50 was under 500 nM.
Still for that read-out and setting: then `Cn1nc(C2CCC(=O)NC2=O)c2ccc(C3CCN(CC4CCN(CC(=O)N[C@H]5CC[C@H](Nc6ncc(F)c(-c7cccc(-n8ccccc8=O)c7)n6)CC5)CC4)CC3)cc21` (stereo partly drawn) [Compound 304, trans-2-(4-((4-(3-(2,6-dioxopiperidin-3-yl)-1-methyl-1H-indazol-6-yl)piperidin-1-yl)methyl)piperidin-1-yl)-N-(4-((5-fluoro-4-(3-(2-oxopyridin-1(2H)-yl)phenyl)pyrimidin-2-yl)amino)cyclohexyl)acetamide], with under 500 nM.
